US6759238B1, “Multidrug resistance associated proteins and uses thereof” (priority 1999, dated 2004)
Several values for one entry are separate records, joined by “and”; a condition that tells them apart may be missing. Equal values may be shown once. Read-outs that look alike come from different tables or passages of the source.

Key:
[1] = Efflux of [3H]-AZT and its metabolites; type: in vitro ADME, human; settings: human, t½ for intracellular AZT, CEM-r1
Protocol: (§1) Cells were incubated for 60 minutes with [^3H]-AZT (10 μM) after which they were washed free of radioactivity, resuspended in drug-free medium and the intracellular and the extracellular concentration of [^3H]-AZT were measured. […] At least 80% of the AZTMP present intracellularly in CEM-r1 cells was excreted into the medium in 10 minutes (FIG. 6A).
(§2) Referring to Table 6 in greater detail, efflux kinetics were studied. Transport analysis of PMEA was conducted as previously described^48. […] The cells were then washed free of radioactivity and then incubated in drug-free medium in the presence of sodium azide and 2-deoxy-D-glucose. At various time periods, the amount of intracellular AZTMP was measured. As reported in Table 6, depletion of ATP led to an inhibition of AZTMP efflux (i.e. a significant accumulation of AZTMP in the CEM-r1 cells but not in the CEM-SS cells).
(§3) The suspension was centrifuged at 3,300 rpm for 7 minutes. All but 1 ml of the supernatant medium containing the free drug was aspirated. […] The cell pellet was then washed with ice-cold medium and resuspended at the same concentration in drug-free medium and maintained at 37° C. […] An aliquot of the top layer (cell free media) was analyzed for the quantitation of AZT and its metabolites.

CEM-SS cells [2] = test: Phosphorylation of AZT; type: in vitro ADME, human; settings: 10 μM AZT
Protocol: (§4) The appearance of the phosphorylated metabolites into the medium was also determined in both the cell lines. AZTDP and AZTTP were not detected in the medium of either CEM-SS or CEM-r1 cells. However, the amount of AZTMP accumulated in the media was approximately 3-fold higher in CEM-r1 cells than in CEM-SS cells.
(§5) The cartridges were conditioned with 10% MeOH Ammonium Phosphate Buffer (5 mM, pH 4.0). The sample was loaded onto the column. […] AZTDP and AZTTP were eluted with 10% MeOH Ammonium Phosphate Buffer (700 mm, pH 4.6).

CEM-r1 cells [3] = test: Phosphorylation of AZT; type: in vitro ADME, human; settings: CEM-r1, 10 μM AZT
Protocol: as §4, §5

CEM-SS and CEM-r1 cells = test: Uptake of [3H]-AZT; type: in vitro ADME, human; settings: 10 μM and 100 μM, up to 120 seconds
Protocol: At various time periods (0, 10, 20, 30, 40, 60, 90, 120 seconds) from the start of the incubation, aliquots of the cell suspension were removed and centrifuged through Nyosil 50 (W. F. Nye, Inc.,New Bedford, Ma.) at 14,000×g for 60 seconds at 4° C.

[4] = test system: HIV-1IIIB in CEM-SS cells; test: Antiviral activity (ED50, RT / p24 assay) in wild type cells; type: cell-based; settings: Human immunodeficiency virus 1, WT (CEM-SS) cells
Text: (§6) As used herein, “pM” means picomolar, “nM” means nanmolar, “μM, means micromolar, “mM” means millimolar, “ul” or “μl” mean microliter, “ml” means milliliter, “l” means liter. […] “IC50” means the inhibitory concentration at which growth is arrested by 50 percent.
(§7) The two cell lines, CEM-SS and CEM-r1 were infected with HIV-IMB at a multiplicity of 0.01, and cultured for 6 days in the presence and absence of different concentrations of test drugs. The extent of virus production was monitored by in in-house p24 antigen capture assay (50).
The antiviral effects of the different drugs were monitored by RT assays according to previously described procedures (20, 21). […] After 5 days of incubation, the RT activity of the culture supernates was determined by previously described procedures (22). […] The filter papers were dried, transferred to a plastic bag containing scintillation cocktail, sealed, and counted in an LKB Betaplate reader. The drug concentrations yielding half-maximal RT activity (ED50) was calculated as a measure of the antiviral efficacy of the test compounds, using the nonlinear curve-fitting software Enzfitter (Elsevier Biosoft, Cambridge, UK).

[5] = test system: HIV-1IIIB in CEM-r1 cells; test: Antiviral activity (ED50, RT / p24 assay) in resistant cells; type: cell-based
Text: as §6, §7
The antiviral effects of the different drugs were monitored by RT assays according to previously described procedures (20, 21). CEM-SS or CEM-r1 cells were infected with an inoculum of HIV-1IIIB standardized to contain 1 RT cpm/cell, and the virus-infected cells were seeded at a concentration of 0.2×10^6 cells/ml in medium containing varying concentrations of PMEA (or other test compounds). After 5 days of incubation, the RT activity of the culture supernates was determined by previously described procedures (22). […] The reaction was initiated by addition of 10 ul of virus-containing tissue culture supernatant. After 1 hr of incubation, 10 ul of the reaction mixture were spotted on a Whatman DE-81 tilter paper, air dried, and washed four times with 2×standard saline citrate (0.3 M NaCl, 0.03 M sodium citrate). The filter papers were dried, transferred to a plastic bag containing scintillation cocktail, sealed, and counted in an LKB Betaplate reader. The drug concentrations yielding half-maximal RT activity (ED50) was calculated as a measure of the antiviral efficacy of the test compounds, using the nonlinear curve-fitting software Enzfitter (Elsevier Biosoft, Cambridge, UK).

[6] = Efflux of [3H]-AZT and its metabolites; type: in vitro ADME, human; settings: human, t½ for intracellular AZT, CEM-SS
Protocol: as §1, §2, §3

[7] = Cytotoxicity assay (growth inhibition, Coulter counter); settings: human
Protocol: (§8) Selection for PMEA resistance was carried out by exposing CEM-SS cells in culture to increasing concentrations of PMEA, over several months.
(§9) The IC50 values were obtained after 2 days of culture. Each result is the mean of one representative experiment performed in duplicate. The cultures with the purine nucleosides adenosine, 2′-deoxyadenosine, and arabinosyladenine contained 5 μM deoxycoformycin to inhibit adenosine deaminase activity.
(§10) All assays were performed in 24-well tissue culture plates (Costar, Cambridge, Ma.). […] At the end of the incubation, the cell concentrations, sizes, and volumes were counted in a Coulter counter (Coulter Electronics, Hialeah. Fla.).

CEM-r1 cells [8] = test: as above
Protocol: as §8, §9, §10

CEM-SS cells [9] = test: as above
Protocol: (§11) […] Each result is the mean of one representative experiment performed in duplicate. The cultures with the purine nucleosides adenosine, 2′-deoxyadenosine, and arabinosyladenine contained 5 μM deoxycoformycin to inhibit adenosine deaminase activity.
as §10

[10] = as above; settings: human, CEM-SS cells (wild type, parental)
Protocol: as §11, §10

CEM-SS cells [11] = test: Efflux of PMEA from bispom-PMEA loaded cells; type: in vitro ADME, human; settings: for Efflux kinetics, PMEA: CEMss
Protocol: (§12) To examine whether the resistant cells could be altered in their capacity to retain the phosphonate analog, the clearance of [^3H]PMEA and its metabolites from CEM-SS and CME-r1 cells was determined. […] Aliquots of cells and medium sampled at different intervals over a period of 2 hr were analyzed by HPLC, and the results are shown in FIG. 4. […] Some of this clearance was probably due to the anabolism of PMEA, because the PMEAp- and PMEApp-associated radioactivity continued to accumulate within the cells, but the majority of the radioactivity was excreted into the medium as PMEA. In contrast to the results with parental cells, loss of intracellular PMEA-associated radioactivity in the resistant CEM-r1 cells was extremely rapid and the majority of the radioactivity within the cells was excreted into the medium within 20-30 minutes of incubation (FIG. 4).
(§13) Both CEM-SS and CME-r1 cells were incubated for 3 minutes with increasing concentrations (range 0.07 mM to 8.80 mM) of the prodrug for the selecting agent, Bis(POM)PMEA. After incubation, the cells were pelleted and reconstituted in drug-free medium, and the amount of PMEA present in the medium and intracellularly was measured 15 minutes after resuspension. The amount of PMEA effluxing out into the medium at 15 minutes increased initially with increasing concentration (FIG. 7A).
as §2
(§14) At the indicated times, extracts were prepared from the cells and the medium, and the prodrug and its various nucleoside/nucleotide metabolites were analyzed by HPLC as described previously (24).

CEM-r1 cells [12] = test: Uptake and metabolism of [3H]PMEA; settings: for Intracellular levels: CEM-r1, 10 μM [3H]PMEA
Protocol: (§16) The mutant and parental cells were incubated with 10 μM [^3H]PMEA and at various times were analyzed for intracellular levels of PMEA and its metabolites by Partisil SAX HPLC. […] The metabolism of [^3H]PMEA was also examined in both cell lines after longer periods (i.e., 8 and 12 hr) of incubation with 10 μM [^3H]PMEA.
(§17) Exponentially growing cultures were incubated with 10 μM [^3H] PMEA for 8 or 12 hr and the cell extracts were analyzed for PMEA and its metabolites by ion exchange HPLC, as described.
(§18) Exponentially growing CEM-SS and CEM-r1 cells were harvested by centrifugation, resuspended at 1×10^6 cells/ml in fresh medium in the presence of [^3H]PMEA or [^3H]bispom-PMEA, and incubated at 37° C. At the indicated time points, aliquots of the cells were removed and centrifuged through Nyosil 50 (W. F. Nye, Inc., New Bedford, Ma.) at 13,000×g for 60 seconds at 4° C. When bispom-PMEA was investigated, an aliquot of the cell-free medium was also removed and analyzed by HPLC for determination of extracellular metabolites. The cell pellet was extracted with 70% ice-cold methanol and the aqueous phase was collected and analyzed for intracellular tritiated PMEA or tritiated bispom-PMEA and their metabolites by using HPLC analysis, essentially as described previously (23, 24).

CEM-SS cells [13] = test: Uptake and metabolism of [3H]PMEA; settings: 10 μM [3H]PMEA
Protocol: as §16, §17, §18

CEM-SS cells [14] = test: Uptake and metabolism of [3H]bispom-PMEA; settings: CEM-SS, 1 μM [3H]bispom-PMEA, 15 minutes
Protocol: (§15) Therefore, the metabolism of [^3H]bispom-PMEA (15), a lipophilic prodrug of PMEA, was analyzed in the two cell lines in order to further examine the mechanism of resistance in the mutant cell line.

CEM-r1 cells [15] = test: Uptake and metabolism of [3H]bispom-PMEA
Protocol: as §15

CaCo-2 cells = test: PMEA transport in transwell culture; type: in vitro ADME; settings: CaCo-2
Text: A transwell culture which is permissive for cellular polarization may be used to measure the compartment to compartment flux of putative substrates. […] In addition, it is possible that expression of MPR4 depending if it is basal or apical (and this may vary by organ cultured) may determine if PMEA or PMEA-like drugs are absorbed.

CEM-r1 cells [16] = test: Efflux of PMEA from bispom-PMEA loaded cells; type: in vitro ADME, human
Protocol: as §12, §13
CEM-r1 cells were incubated with 0.07-8.8 mM Bis(POM)PMEA for 3 minutes. The cells were pelleted and reconstituted in either drug-free medium or in medium containing 0.5 mM PMEA, and the amount of PMEA present in the medium and intracellularly was measured 15 minutes after resuspension.
as §2, §14

[17] = CEM-r1, 1 μM [3H]bispom-PMEA, 15 minutes

## Cc1cn([C@H]2C[C@H](N=[N+]=[N-])[C@@H](CO)O2)c(=O)[nH]c1=O [AZT, zidovudine]
[1]
  half-life at 10 μM: 6.5 min
CEM-SS cells [2]; 4 hours
  Intracellular Concentration: 10 µM
CEM-SS cells [2]; 8 hours
  Intracellular Concentration: 8 µM
CEM-SS cells [2]; 24 hours
  Intracellular Concentration: 10 µM
CEM-r1 cells [3]; 8 hours
  Intracellular Concentration: 5.2 µM
CEM-r1 cells [3]; 24 hours
  Intracellular Concentration: 4.3 µM
CEM-SS and CEM-r1 cells
  Cellular uptake in the two cell lines: similar
[4]
  EC50: 0.006 µM
[5]; Human immunodeficiency virus 1, CEM-r1 cells, HIV
  EC50: 0.14 µM
[6]
  half-life at 10 μM: 8.1 min
[7]
  IC50 at 48 h: 3000 µM
CEM-r1 cells [8]; Homo sapiens, 24 h, read-out: Drug sensitivity (concentration to inhibit 50% growth)
  IC50: 3000 µM
CEM-SS cells [9]; Homo sapiens, CEM-SS, 24 h, read-out: Drug sensitivity (concentration to inhibit 50% growth)
  IC50: 500 µM
[10]
  IC50 at 48 h: 500 µM

## Nc1ncnc2c1ncn2CCOCP(=O)(O)O [PMEA, 9-(2phosphonylmethoxyethyl)adenine]
CEM/VLB100
  Cross-resistance of MDR mutant CEM/VLB100: did not exhibit any cross-resistance
CEM-SS cells [11]; Azide + Deoxyglucose
  Efflux kinetics, PMEA: >26 min
CEM-SS cells [11]; no treatment
  Efflux kinetics, PMEA: >26 min
CEM-SS cells [11]; parental CEM-SS cells
  Rate of efflux: 0.4 pmol/min/10^6 cells
CEM-SS cells [11]; parental CEM-SS cells, loaded with 1 μM [3H]bispom-PMEA, drug-free medium
  Time to half-maximal clearance of intracellular radioactivity: about 60 min
CEM-r1 cells [12]; 8 hr
  Intracellular levels: 1.0 µM
CEM-r1 cells [12]; 12 hr
  Intracellular levels: 1 µM and 0.99 µM
CEM-r1 cells [12]; CEM-r1 vs CEM-SS, 8 hr
  Intracellular level in CEM-r1 as percent of the wildtype level: (56%)
CEM-SS cells [13]; 8 hr
  Intracellular levels: 1.7 µM
CEM-SS cells [13]; 12 hr
  Intracellular levels: 2.5 µM
[5]; CEM-r1 vs WT
  Fold Resistance (antiviral activity): >150
CEM-SS cells [14]
  Metabolite Levels, Cells: 33.1 µM
  Metabolite Levels, Medium: 4.8 nM
CEM-r1 cells [15]; 1 μM [3H]bispom-PMEA, 15 min
  Levels in CEM-r1 cells relative to those seen in parental cells: about one third
CEM-r1 cells [15]; [17]
  Metabolite Levels, Cells: 13.3 µM
  Metabolite Levels, Medium: 23.2 nM
CEM-r1 cells [15]; medium, 1 μM [3H]bispom-PMEA, 15 min
  Levels of extracellular PMEA, CEM-r1 vs parental CEM-SS: ~5 fold
CEM-r1 cells [8]; CEM-r1, 2 days of culture (Table 3)
  IC50: 6200 µM
CEM-r1 cells [8]; CEM-r1 vs CEM-SS (Table 3)
  Relative Resistance: 182
CEM-r1 cells [8]; CEM-r1 vs parental CEM-SS
  Resistance of CEM-r1 cells to the cytotoxic effects, compared with the parental cells: ~250 fold and > 250 fold
CEM-r1 cells [8]; ratio of IC50 of resistant line to IC50 of wild type
  Fold Resistance (cytotoxicity): 250
CEM-r1 cells [8]; read-out: Cytotoxicity IC50, CEM-r1 cells (Table 5)
  IC50: 20000 µM
CaCo-2 cells
  Direction of transport in transwell culture: more rapidly transported from the apical to the basal side
CEM-SS cells [9]; CEM-SS, 2 days of culture (Table 3)
  IC50: 34 µM
CEM-SS cells [9]; read-out: Cytotoxicity IC50, WT (CEM-SS) cells (Table 5)
  IC50: 80 µM
CEM-SS cells [9]; read-out: Drug sensitivity (concentration to inhibit 50% growth), CEMss, 24 h exposure (Table 6)
  IC50: 80 µM
CEM-r1 cells [16]
  Increase in rate of efflux, CEM-r1 vs CEM-SS: ~7 fold
CEM-r1 cells [16]; CEM-r1, medium with 0.5 mM PMEA vs drug-free
  Amount of PMEA effluxed in the presence or absence of PMEA in the medium: no significant difference
CEM-r1 cells [16]; CEM-r1 cells, loaded with 2 μM [3H]bispom-PMEA, drug-free medium
  Time within which the majority of the radioactivity was excreted into the medium: 20 to 30 min
CEM-r1 cells [16]; CEMr-1, Azide + Deoxyglucose
  Efflux kinetics, PMEA: >26 min
CEM-r1 cells [16]; CEMr-1, no treatment
  Efflux kinetics, PMEA: 4.4 min
CEM-r1 cells [16]; resistant CEM-r1 cells
  Rate of efflux: 2.55 pmol/min/10^6
